Test results from patent publication US5418239A, “Tricyclic heterocyclic compounds, their production and use” (Takeda Chemical Industries, Ltd., priority 1990, dated 1995).

Tests used:
[1] = target: T1, Acyl-CoA:cholesterol transferase (ACAT) (Rattus norvegicus, UniProt Q7TQM4); experiment: Acyl-CoA:cholesterol transferase (ACAT) inhibitory activity (labeled cholesterol ester production, small intestinal mucosal microsome fraction); type: biochemical, male sprague-Dawley rat; conditions: rat small intestinal mucosal microsomes; for inhibition at 1 µM: 10^-6 M test compound, read-out: ACAT inhibition rate (%) (labeled cholesterol ester production inhibiting rate); for IC50: plotted at a plurality of concentration levels, read-out: IC50 (50% inhibitory concentration, ACAT)
T1 construct: small intestinal mucosal microsome fraction of a 6-week-old male sprague-Dawley rat; from tissue; host or cells: small intestinal mucosal microsome fraction, 6-week-old male Sprague-Dawley rat
T1 sequence (Q7TQM4 1-524): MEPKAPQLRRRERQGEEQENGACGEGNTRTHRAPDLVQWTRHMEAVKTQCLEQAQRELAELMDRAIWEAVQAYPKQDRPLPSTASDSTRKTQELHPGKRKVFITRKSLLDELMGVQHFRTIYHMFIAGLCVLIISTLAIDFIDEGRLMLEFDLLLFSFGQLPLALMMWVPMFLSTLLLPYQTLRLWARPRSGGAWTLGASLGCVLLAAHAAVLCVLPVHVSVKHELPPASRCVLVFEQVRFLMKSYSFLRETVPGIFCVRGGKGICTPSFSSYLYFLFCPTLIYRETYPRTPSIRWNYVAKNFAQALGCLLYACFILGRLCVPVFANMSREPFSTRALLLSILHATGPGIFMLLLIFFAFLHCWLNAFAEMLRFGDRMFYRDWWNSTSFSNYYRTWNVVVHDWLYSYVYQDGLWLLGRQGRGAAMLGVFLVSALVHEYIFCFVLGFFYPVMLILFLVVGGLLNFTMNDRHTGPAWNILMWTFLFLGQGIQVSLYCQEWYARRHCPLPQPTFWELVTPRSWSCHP
Procedure: Samples of ACAT enzyme were prepared from the small intestinal mucosal microsome fraction of a 6-week-old male sprague-Dawley rat fasted for 20 hours in accordance with the procedure described by Heider et al, Journal of Lipid Research 24, 1127 (1982).
ACAT activity was determined in accordance with the method of Helgerud et al., Journal of Lipid Research 22, 271 (1981), by measuring the amount of labeled cholesterol ester produced from [1-^14 C]oloyl-CoA and endogenous cholesterol.
The 50% inhibitory concentration (IC50) determined by plotting at a plurality of concentration levels is also shown.

plasma cholesterol = experiment: Plasma cholesterol lowering activity in cholesterol-fed rats; type: in vivo, Male Sprague-Dawley rats; conditions: 1% cholesterol diet containing 0.0003% test compound, 7 days; ingested about 0.23-0.24 mg/kg/day; mean ± S.D.; * p < 0.05 (t-test) against control group (181.8 ± 60.4)
Procedure: Male Sprague-Dawley rats aged 7 weeks were divided into groups based on body weight and put on a 1% cholesterol diet (the rat diet supplemented with 0.5% cholic acid and 5% olive oil) containing 0.0003% of the test compound for 7 days. The blood was sampled from surfeited rats between 8:30 and 10:00 a.m. and the plasma cholesterol concentration was enzymatically determined. The amount of the compound ingested was calculated from the food consumption.

Compound	inhibition at 1 µM [1] [%]	IC50 [1] [nM]	Plasma cholesterol (plasma cholesterol) [mg/dL]
O=C(Nc1ccc(F)cc1F)Nc1cnc2cc3c(cc2c1-c1ccccc1Cl)CCC3 [Example 1, N-[4-(2-chlorophenyl)-7,8-dihydro-6H-cyclopenta[g]quinolin-3-yl]-N'-(2,4-difluorophenyl)urea]	99.3	3.8	80.8 ± 18.6
CC(C)(C)c1cc(-c2c(NC(=O)Nc3ccc(F)cc3F)c(=O)oc3cc4c(cc23)CCC4)cc(C(C)(C)C)c1O [Example 8, N-[4-(3,5-di-tert-butyl-4-hydroxyphenyl)-2-oxo-2,6,7,8-tetrahydrocyclopenta[g] [1]benzopyran-3-yl]-N'-(2,4-difluorophenyl]urea]	99	–	–
Cc1ccccc1-c1c(NC(=O)Nc2ccc(N(C)C)cc2)c(=O)oc2cc3c(cc12)CCC3 [Example 9, N-(4-dimethylaminophenyl)-N'-[4-(2-methylphenyl)-2-oxo-2,6,7,8-tetrahydrocyclopenta[g] [1]benzo-pyran-3-yl]urea]	94.6	–	–
Cc1ccccc1-c1c(NC(=O)Nc2ccc(F)cc2F)c(=O)oc2cc3c(cc12)CCCC3 [Example 10, N-(2,4-difluorophenyl)-N'-[4-(2-methylphenyl)-6,7,8,9-tetrahydro-2-oxo-2H-naphtho[2,3-b]pyran-3-yl]urea]	98.7	–	–
COc1nc2cc3c(cc2c(-c2ccccc2Cl)c1NC(=O)Nc1cc(C)c(OC(C)=O)c(C)c1)CCC3 [Example 11, N-(4-acetoxy-3,5-dimethylphenyl)-N'-[4-(2-chlorophenyl)-7,8-dihydro-2-methoxy-6H-cyclopenta[g]-quinolin-3-yl]urea]	75.6	–	–
CC(=O)Oc1c(C)cc(NC(=O)Nc2c(-c3ccccc3C)c3cc4c(cc3n(C)c2=O)CCC4)cc1C [Example 12, N-(4-acetoxy-3,5-dimethylphenyl)-N'-[1-methyl-4-(2-methylphenyl)-2-oxo-l,2,7,8-tetrahydro-6H-cyclopenta[g]quinolin-3-yl]urea]	91.1	–	–
COc1ccc(C=CC(=O)Nc2c(-c3ccccc3C)c3cc4c(cc3oc2=O)CCC4)cc1OC [Example 13, 3-(3,4-dimethoxycinnamoylamino) -4-(2-methylphenyl)-7,8-dihydrocyclopenta[g] 1benzopyran-2(6H)-one]	89.9	–	–
Cc1ccccc1-c1c(NC(=O)Cc2cc(C(C)(C)C)c(O)c(C(C)(C)C)c2)c(=O)oc2cc3c(cc12)CCC3 [Example 15, 3-(3,5-di-tert-butyl-4-hydroxyphenylacetylamino) -4-(2-methylphenyl)-7,8-dihydrocyclopenta-[g] [1]benzopyran-2(6H)-one]	89.6	–	–
Cc1ccccc1-c1c(NC(=O)Nc2ccc(F)cc2F)c(=O)n(C)c2cc3c(cc12)CCC3 [Example 19, N-(2,4-difluorophenyl)-N'-[1-methyl-4-(2-methylphenyl)-2-oxo-l,2,7,8-tetrahydro-6H-cyclopenta-[g]quinolin-3-yl]urea]	98.2	–	–

Further lines, with some results ahead:

inhibition at 1 µM [1] [%]	IC50 [1] [nM]	Compound	Plasma cholesterol (plasma cholesterol) [mg/dL]
99.2	3.9	Cc1ccccc1-c1c(NC(=O)Nc2ccc(F)cc2F)cnc2cc3c(cc12)CCC3 [Example 2, N-[7,8-Dihydro-4-(2-methylphenyl)-6H-cyclopenta[g]-quinolin-3-yl]-N'-(2,4-difluorophenyl)urea]	78.5 ± 10.2
99.5	–	Cc1ccccc1-c1c(NC(=O)Nc2ccc(F)cc2F)c(=O)oc2cc3c(cc12)CCC3 [Example 3, N-(2,4-difluorophenyl)-N'-[4-(2-methylphenyl)-2-oxo-2,6,7,8-tetrahydrocyclopenta[g][1]-benzopyran-3-yl]urea]	78.1 ± 12.6
91.5	–	O=C(Cc1ccc(F)cc1F)Nc1cnc2cc3c(cc2c1-c1ccccc1Cl)CCC3 [Example 4, 4-(2-chlorophenyl)-3-(2,4-difluorophenylacetylamino)-7,8-dihydro-6H-cyclopenta(g)quinoline]	–
94.4	–	COc1cc(NC(=O)Nc2c(-c3ccccc3C)c3cc4c(cc3oc2=O)CCC4)cc(OC)c1O [Example 16, N-(4-hydroxy-3,5-dimethoxyphenyl)-N'-[4-(2-methylphenyl)-2-oxo-2,6,7,8-tetrahydrocyclopenta [g] [1]benzopyran-3-yl]urea]	–
97.6	–	Cc1ccccc1-c1c(NC(=O)Nc2cc(C)c(O)c(C)c2)c(=O)oc2cc3c(cc12)CCC3 [Example 17, N-(4-hydroxy-3,5-dimethylphenyl)-N'-[4-(2-methylphenyl)-2-oxo-2,6,7,8-tetrahydrocyclopenta-[g] [1]benzopyran-3-yl]urea]	–
86.9	–	Cc1ccccc1-c1c(NC(=O)C=Cc2ccc(O)c(O)c2)c(=O)oc2cc3c(cc12)CCC3 [Example 18, 3-(3,4-dihydroxycinnamoylamino)-4-(2-methylphenyl)-7,8-dihydrocyclopenta [g] [1]benzopyran-2(6H)-one]	–
